Results on five molecules are retold here after patent EP4684783A1, “COSMETIC COMPOSITION FOR PREVENTING, ALLEVIATING, OR AMELIORATING HAIR LOSS” (LG Chem, Ltd., priority 2023, dated 2025).

The test system of one data set is hair follicle cells. Description: Ki67 immunofluorescence staining of cultured scalp tissue (hair follicle cell proliferation). The following applies: for Ki67 positive cells (%): scalp tissue, 24 hours. Also on record: species or system human. The protocol: (§1) The ratio of hair follicle telogen and the expression level of hair follicle cell proliferation-related factor proteins depending on whether 3-hydroxypropionic acid was applied or not were evaluated according to the following methods.
(§2) The human hair follicles or scalp tissues provided for research purposes (IRB No. 4-2023-1052; Institutional Review Board, Severance Medical Center, Yonsei University College of Medicine) were washed several times with PBS to remove residual impurities, and randomly divided into each group. The hair follicles and scalp tissues were cultured in Williams' Medium E (Sigma) supplemented with 2 mM L-glutamine (Sigma-Aldrich), 10 µg/ml insulin (Sigma-Aldrich), 100 ng/ml hydrocortisone (Sigma-Aldrich), 0.1% fungizone (Gibco, USA), and 1% antibioticantimycotic (Gibco), and 1% […] (Gibco) at 37°C in 5% CO2.
After the scalp tissue was treated with the test composition for 24 hours, the obtained tissue was prepared into a frozen block, and frozen sectioned at a thickness of 5 µm using a Cryostat microtome (Leica Biosystems, Germany), and the tissue sections were attached onto Silane-coated slides. Then, in order to stain the tissue sections and photograph the cross sections, the OCT compound was removed, a primary antibody specifically binding to Ki67 (Anti-Ki67 antibody: ab15580; abcam) was attached, and a fluorescently labeled secondary antibody specifically binding to this primary antibody (Goat pAb to Rb IgG (H+L): a11012; Invitrogen) was attached. Finally, the tissues were fixed with a fixative containing blue fluorescent DAPI (VECTASHIELD® mounting medium with DAPI; Vector laboratories) that stains the cell nucleus, and then images were taken at 100x magnification using a fluorescence microscope (M2; Zeiss). The percentage of Ki67-expressing cells among the total cells labeled with DAPI was measured from the captured images, and a higher value means a higher number of Ki67-expressing cells.

Another data set deals with human hair follicles. Put plainly: Ratio of hair follicle telogen in DHT-treated cultured hair follicles (visual evaluation). The following applies: for Telogen ratio (%): 6 days. The method, then:
as §1, §2
To induce the telogen in the anagen hair follicle tissue, the test composition was treated with 1 µM dihydrotestosterone (DHT). The medium was replaced every 3 days and cultured for 6 days. The ratio of hair follicle telogen was visually evaluated based on the ratio of hair follicles in which the telogen occurred for 6 days compared to day 0.

The subject of another data set is Srd5α1. Put plainly: 5α-reductase gene expression by real-time PCR (relative quantification vs GAPDH). In kind it is cell-based, Human. As to conditions: for mrna remaining at 0.0125 %: 3HP 0.0125 %; for mrna remaining at 0.025 %: 3HP 0.025 %. The protocol: (§3) Human follicle dermal papilla cells (PromoCell GmbH) were cultured in human follicle dermal papilla cells growth medium(PromoCell GmbH) supplemented with fetal calf serum(FCS), bovine pituitary extract(BPE), basic fibroblast growth factor(bFGF), and insulin at 37°C and 5% CO2.
(§4) The cultured human follicle dermal papilla cells were divided into 5x10^4 cells in a 96-well plate, and when the cells reached 80% or more confluency, they were treated with the 3-hydroxypropionic acid aqueous solution according to Preparation Example 1 at four concentrations (3HP concentrations: 0 wt.%, 0.0125 wt.%, 0.025 wt.%, and 0.05 wt.%), and then cultured for 24 hours. Then, the total RNA in the cells was extracted, and cDNA was synthesized from the extracted RNA. The synthesized cDNA was subjected to real-time polymerase chain reaction. And, the relative quantitative analysis of each gene was performed using GAPDH (one of the house-keeping genes). The relative quantification (RQ) value was calculated according to the following Equation 2. RQ = 2−ΔΔCT; ΔΔCT = ΔCT (Treatment)−ΔCT (Control); ΔCT = CT (Targetgene)−CT (House-keepinggene) [formula]
(§5) In the Equation 2, 'Treatment' is the group treated with 3HP; 'Control' is the group not treated with 3HP; 'Target gene' is Srd5α1 and TGF-β1, and 'House-keeping gene' is GAPDH.
(In general: In qPCR the cycle at which signal appears reflects the starting amount.)

The next data set relates to TGF-β1. Description: TGF-β1 gene expression by real-time PCR (relative quantification vs GAPDH). In kind it is cell-based, Human. The following applies: for mrna remaining at 0.0125 %: 3HP 0.0125 %; for mrna remaining at 0.025 %: 3HP 0.025 %. The protocol: as §3, §4, §5
For data set [1], the system named is Human follicle dermal papilla cells. Description: Cell viability (WST / CCK-8 absorbance at 450 nm). In kind it is cell-based. As to conditions: for Human follicle dermal papilla cell viability (%): 24 hours, single runs (Once / Two times / Three times), 1440 min. The method, then: as §3
(§6) […] WST substrate solution (high sensitivity water soluble tetrazolium salt, CCK-8, DOJINDO) was then added to the medium, and cultured at 37°C for 2 hours.
(§7) During the culture, a […] formazan was produced by the reaction between WST and intracellular dehydrogenase, and the absorbance (OD, wavelength 450 nm) was measured. The cell viability was calculated according to the following Equation 1 below, and the results are shown in Table 1 below. [formula]
(§8) In Equation 1, the 'experimental group' is the group treated with an aqueous solution containing 3HP; the 'control group' is the medium containing only the WST substrate; and the 'negative control group' is the group in which a medium containing WST substrate was treated with an aqueous solution of 0% 3HP.

Data set [2] can be described thus: Cell viability (WST / CCK-8 absorbance at 450 nm). In kind it is cell-based, Human. The following applies: human, follicle dermal papilla cells, 24 hours. The method, then:
as §3, §6, §7, §8

Setting [3] is: Homo sapiens, 24 h, 24 hours, human follicle dermal papilla cells, Average, read-out: 5α-reductase gene expression level (RQ).
Setting [4] is: Homo sapiens, 24 h, 24 hours, human follicle dermal papilla cells, single runs (Once / Two times / Three times), read-out: 5α-reductase gene expression level (RQ).
The mark [5] stands for this setting: Homo sapiens, 24 h, 24 hours, human follicle dermal papilla cells, Average, read-out: TGF-β1 gene expression level (RQ).
Setting [6] is: Homo sapiens, 24 h, 24 hours, human follicle dermal papilla cells, single runs (Once / Two times / Three times), read-out: TGF-β1 gene expression level (RQ).

Several values for one entry are separate records, joined by “and”; a condition that tells them apart may be missing. Identical values can stand only once. Like-named read-outs stand apart in the source and are kept apart here.

Usually viability stands for a read-out of living cells in per cent, often relative to untreated cells.

`O=C(O)CCCC[C@@H]1SC[C@@H]2NC(=O)N[C@@H]21` [Biotin, reference compound]: the “Ki67 positive cells (%)” value in the data set with hair follicle cells (2 ng/ml Biotin) is 44.631%. For the same molecule, in the data set on human hair follicles (DHT + 2 ng/ml Biotin), the “Telogen ratio (%)” value is recorded as 10.000%.
Consider `C[C@]12CCC(=O)C[C@@H]1CC[C@@H]1[C@@H]2CC[C@]2(C)[C@@H](O)CC[C@@H]12` [DHT, dihydrotestosterone, reference compound], for which the “Telogen ratio (%)” value in the data set on human hair follicles (1 µM DHT alone (DHT control group)) is 40.000%.
With `O=C(O)CCO` [Example 3HP, 3-hydroxypropionic acid], the mrna remaining at 0.0125 % was 86.6% in the data set with Srd5α1 (setting [3]), 85.6% in the data set on Srd5α1 (setting [4]), 80.2% in the data set on TGF-β1 (setting [5]) and 75.6% in the data set with TGF-β1 (setting [6]). The mrna remaining at 0.025 % in the data set with Srd5α1 (setting [3]) came out at 88.8%; in the data set on Srd5α1 (setting [4]), 87.1%; in the data set with TGF-β1 (setting [5]), 69.4%; in the data set on TGF-β1 (setting [6]), 70.4%. Moreover, the mrna remaining at 0.05 % with Srd5α1 (Homo sapiens, 24 h, 3HP 0.05 %, 24 hours, human follicle dermal papilla cells, Average, read-out: 5α-reductase gene expression level (RQ)) was 127%; with TGF-β1 (Homo sapiens, 24 h, 3HP 0.05 %, 24 hours, human follicle dermal papilla cells, Average, read-out: TGF-β1 gene expression level (RQ)) it was 130%. Further, the “expression of the 5α-reductase gene” value in the data set with Srd5α1 (under the treatment concentration of Table 3, result in words) was “significantly inhibited”. Further, in the data set with TGF-β1 (under the treatment concentration of Table 4, result in words), the “expression of the TGF-β1 gene” value is given as “significantly inhibited”. The “Human follicle dermal papilla cell viability (%)” value in data set [1] (3HP 0.0125 %) was 92.037% and 95.062%; in data set [1] (3HP 0.025 %) it was 84.153% and 89.275%; in data set [1] (3HP 0.05 %), 86.027% and 85.031%; in data set [1] (3HP 0.1%), 72.756% and 75.694%. For the same molecule, in data set [1] (under the treatment concentrations of Table 2, result in words), the cell viability entry is on record as “high”. In addition, the viability at 24 h was 92.6% in data set [2] (3HP 0.0125 %, Average); 90.8% in data set [2] (3HP 0.0125 %, single runs (Once / Two times / Three times)); 86.7% in data set [2] (3HP 0.025 %, Average); 86.6% in data set [2] (3HP 0.025 %, single runs (Once / Two times / Three times)); 85.8% in data set [2] (3HP 0.05 %, Average); 86.5% in data set [2] (3HP 0.05 %, single runs (Once / Two times / Three times)). For the same molecule, the viability at 24 h turned out to be 75.3% in data set [2] (3HP 0.1%, Average) and 77.5% in data set [2] (3HP 0.1%, single runs (Once / Two times / Three times)). In addition, the “proliferation effect of hair follicle cells” value in the data set on hair follicle cells (0.1% 3HP compared to the negative control group, Ki67 immunofluorescence staining, result in words) is on record as “significantly increased”. In the data set on hair follicle cells (0.1% 3HP), the “Ki67 positive cells (%)” value came out at 48.745%. For the same molecule, the “hair follicle telogen ratio” value with human hair follicles (0.1%, 0.5%, and 1.0% 3HP compared to the DHT control group, result in words) is recorded as “significantly decreased”. Moreover, the “Telogen ratio (%)” value in the data set with human hair follicles (DHT + 0.1% 3HP) is listed as 6.250%; with human hair follicles (DHT + 0.5% 3HP), 0.000%; with human hair follicles (DHT + 1.0% 3HP), 0.000%.
As to `CC(C)(C)NC(=O)[C@H]1CC[C@H]2[C@@H]3CC[C@H]4NC(=O)C=C[C@]4(C)[C@H]3CC[C@]12C` [Finasteride, reference compound], the “Telogen ratio (%)” value with human hair follicles (DHT + 0.5 mM Finasteride) is listed as 0.000%.
Consider `Nc1cc(N2CCCCC2)nc(N)[n+]1[O-]` [Minoxidil, reference compound], for which the “Ki67 positive cells (%)” value with hair follicle cells (0.1 mM Minoxidil) was 47.187%.
